{"source": "patent US20120258172A1", "about": "“Compositions For The Treatment of Central Nervous System Disorders Including Depression Employing Novel Drug Combination Therapy To Reduce Suicidality In Patients” (priority 2010, published 2012)", "key": {"[1]": {"tested_on": "severely depressed patients with suicidal thoughts and behaviors", "experiment": "Phase II trial: Sheehan Suicidality Tracking Scale (S-STS)", "assay_type": "in vivo, human", "text": "(§1) Ninety-three patients were screened and 80 subjects were identified who were between the ages of 18 to 75, inclusive, and met the criteria for major depressive disorder (MDD), dysthymia, depression not otherwise specified and/or borderline personality disorder as defined by Diagnostic and Statistical Manual-IV-TR and confirmed by the Mini International Neuropsychological Interview (MINI).\nSelected subjects scored >15 on the Montgomery-Åsberg Depression Rating Scale and >8 on the Sheehan Suicidality Tracking Scale (S-STS) at Screening and Baseline Visits. Subjects were excluded if they had current, unstable and significant medical conditions (a history of unstable Thyroid disorders, a history of seizure disorders, tumors or other central nervous system (CNS) condition that predisposes the patient to risk of seizure), pregnant or lactating, had any abnormal clinical laboratory test results, or ECG results which were judged by the investigator as clinically significant, a history of intolerance or hypersensitivity to citalopram, other SSRIs, or lithium, a history or current diagnosis of bipolar mood disorder, psychosis, schizophrenia or dementia, were currently involved in another clinical trial or had participated in another clinical trial less than thirty days prior, or had current or prior treatment with citalopram or escitalopram. Psychotropic medications (anti-psychotics, anti-depressants, and mood stabilizers) were excluded during the treatment phase and required a twenty-four hour washout period prior to the first dose of study medication. Diuretics, analgesics, benzodiazepines and opiates were used with caution.\n(§2) Efficacy was measured by taking S-STS (Sheehan-Suicidality Tracking Scale (Sheehan, 2009)) scores at Baseline and at each visit for 4 weeks of treatment or until end-of-treatment and measuring the change from baseline in the S-STS total score at week 4. Secondary efficacy variables were the BHS (Beck Hopelessness Scale (Beck, Steer, 1988)), BSS (Beck Scale for Suicide Ideation (Beck and Steer, 1991)), C-SSRS (Columbia Suicide Severity Rating Scale (Posner et al., 2009) and CGI (Clinical Global Impression Study (Guy, 1976)) changes at week 4. Safety measures were collected and evaluated throughout the trial. These included Adverse Events (AEs), laboratory parameters, physical examinations, ECGs and vital signs and weight measurements. Adverse events were any untoward medical event occurring in a subject administered study drug, irrespective of whether it has a causal relationship to the study drug. An adverse event could therefore be any unfavorable or unintended sign (including abnormal laboratory findings, for example), symptom, or disorder temporarily associated with study drug, whether or not considered related to the study drug. Adverse Events among the 80 participants were as follows:\nAll significance tests were two-sided. Statistical significance was assessed at the p≦0.05 level for main effects, and significance at the p≦0.10 level was considered a trend indicating efficacy. Missing values were handled using the last observation carried forward (LOCF) technique. The primary analysis population for inference was the intention-to-treat (ITT) population."}, "[2]": {"tested_on": "severely depressed patients with suicidal thoughts and behaviors", "experiment": "Phase II trial: Montgomery-Åsberg Depression Rating Scale (MADRS)", "assay_type": "in vivo, human", "conditions": "all patients assigned, n = 40", "text": "as §1\n(§3) Selected subjects scored >15 on the Montgomery-Åsberg Depression Rating Scale and >8 on the Sheehan Suicidality Tracking Scale (S-STS) at Screening and Baseline Visits. […]\n(§4) Efficacy was measured by taking S-STS (Sheehan-Suicidality Tracking Scale (Sheehan, 2009)) scores at Baseline and at each visit for 4 weeks of treatment or until end-of-treatment and measuring the change from baseline in the S-STS total score at week 4. […]\n(§5) All significance tests were two-sided. Statistical significance was assessed at the p≦0.05 level for main effects, and significance at the p≦0.10 level was considered a trend indicating efficacy. […]"}, "[3]": {"tested_on": "severely depressed patients with suicidal thoughts and behaviors", "experiment": "Phase II trial: Clinical Global Impression (CGI) severity", "assay_type": "in vivo, human", "conditions": "n = 40 per arm", "text": "as §1, §3, §4, §5"}, "[4]": {"tested_on": "severely depressed patients with suicidal thoughts and behaviors", "experiment": "Phase II trial: Beck Scale for Suicide Ideation (BSS)", "assay_type": "in vivo, human", "conditions": "n = 40 per arm", "text": "as §1, §3, §4, §5"}, "[5]": {"tested_on": "severely depressed patients with suicidal thoughts and behaviors", "experiment": "Phase II trial: Beck Hopelessness Scale (BHS)", "assay_type": "in vivo, human", "conditions": "n = 40 per arm", "text": "as §1, §3, §4, §5"}, "[6]": {"tested_on": "severely depressed patients with suicidal thoughts and behaviors", "experiment": "Phase II trial: adverse events", "assay_type": "in vivo, human", "protocol": "Eligible subjects were evaluated for safety parameters prior to and throughout the screening through a variety of methods including an ECG, physical exam, vital sign taking and clinical laboratory testing. A standard 12-lead ECG was performed at Screening (Visit 1) and at Week 4 (Visit 6 or Early Termination Visit). Physical examinations included determination of general appearance, mental status, skin, neck (including thyroid), eyes, ears, nose, throat, heart, lungs, abdomen, lymph nodes, musculoskeletal system, and nervous system. Vital signs included respiratory rate, radial pulse and systolic and diastolic blood pressures. Vital signs were collected in the seated position. Clinical Laboratory Testing Parameters included a Complete Metabolic Panel (Na, K, Cl, CO2, Glu, BUN, Cr, Ca, TP, Alb, TBili, AP, AST, ALT), Hematology CBC (Hgb, Hct, RBC, WBC, Pit, Diff) and TSH (w/reflex T-4). Serum HCG is performed for all females, and Urine Analysis is completed for all subjects.\nas §2, with “follows: […]” for “follows:”"}, "[7]": {"tested_on": "severely depressed patients with suicidal thoughts and behaviors", "conditions": "of 40 patients in the arm", "quoted_text": "(§6) All subjects received 20 mg citalopram and were randomized to either 300 mg lithium carbonate/day or placebo for 4 weeks of Double-Blind Treatment. Patients were instructed to take one capsule from the bottle and two tablets from the blister card one time daily, in the morning, orally with food. If the patient was unable to tolerate morning dosing, patient may be switched to evening dosing as long as there was 24 hours minimum between doses.\nSubjects were considered to have completed the study if they completed all of the visits."}, "[8]": {"experiment": "Phase II trial: serum lithium level", "assay_type": "in vivo, human", "conditions": "subgroup n = 11 of 40 on 300 mg lithium carbonate/day + 20 mg citalopram (3 at 0.5, 3 at 0.6, 5 at 0.7); week 4", "quoted_text": "as §6"}}, "data": [{"smiles": "CN(C)CCCC1(c2ccc(F)cc2)OCc2cc(C#N)ccc21", "note": "(stereo not shown) [Citalopram + Placebo, citalopram]", "values": [{"measurement": "# With Full S-STS Symptom Remission", "setting": "[1]; all patients assigned, n = 40", "result": 6}, {"measurement": "# With No change in S-STS Symptoms", "setting": "[1]; all patients assigned, n = 40", "result": 12}, {"measurement": "# with Worsening of S-STS Symptoms", "setting": "[1]; all patients assigned, n = 40", "result": 2}, {"measurement": "% With Full S-STS Symptom Remission", "setting": "[1]; all patients assigned, n = 40", "result": "(15%)"}, {"measurement": "% With No change in S-STS Symptoms", "setting": "[1]; all patients assigned, n = 40", "result": "(30%)"}, {"measurement": "% with Worsening of S-STS Symptoms", "setting": "[1]; all patients assigned, n = 40", "result": "(5%)"}, {"measurement": "Mean Total S-STS Change Score", "setting": "[1]; all patients assigned, n = 40", "result": 4.8}, {"measurement": "change in the mean total S-STS", "setting": "[1]; among the 64 completers", "result": "5.4±5.3"}, {"measurement": "Mean Total MADRS Change Score", "setting": "[2]", "result": 9.8}, {"measurement": "CGI (Severity), Mean (SD)", "setting": "[3]; Baseline", "result": "4.9 (0.8)"}, {"measurement": "CGI (Severity), Mean (SD)", "setting": "[3]; End of Study (week 4, LOCF)", "result": "3.3 (1.8)"}, {"measurement": "BSS, Mean (SD)", "setting": "[4]; Baseline", "result": "16.2 (6.7)"}, {"measurement": "BSS, Mean (SD)", "setting": "[4]; End of Study (week 4, LOCF)", "result": "9.1 (8.2)"}, {"measurement": "BHS, Mean (SD)", "setting": "[5]; Baseline", "result": "16.3 (3.4)"}, {"measurement": "BHS, Mean (SD)", "setting": "[5]; End of Study (week 4, LOCF)", "result": "11.8 (5.4)"}, {"measurement": "Adverse Events per Patient", "setting": "[6]; all patients assigned, n = 40", "result": 1.0}, {"measurement": "Anxiousness, % of patients", "setting": "[6]; n = 40 per arm, 4 weeks", "result": 3, "unit": "%"}, {"measurement": "Anxiousness, number of patients", "setting": "[6]; n = 40 per arm, 4 weeks", "result": 1}, {"measurement": "Common Cold, % of patients", "setting": "[6]; n = 40 per arm, 4 weeks", "result": 5, "unit": "%"}, {"measurement": "Common Cold, number of patients", "setting": "[6]; n = 40 per arm, 4 weeks", "result": 2}, {"measurement": "Decreased Appetite, % of patients", "setting": "[6]; n = 40 per arm, 4 weeks", "result": 5, "unit": "%"}, {"measurement": "Decreased Appetite, number of patients", "setting": "[6]; n = 40 per arm, 4 weeks", "result": 2}, {"measurement": "Dizziness, % of patients", "setting": "[6]; n = 40 per arm, 4 weeks", "result": 5, "unit": "%"}, {"measurement": "Dizziness, number of patients", "setting": "[6]; n = 40 per arm, 4 weeks", "result": 2}, {"measurement": "Headaches, % of patients", "setting": "[6]; n = 40 per arm, 4 weeks", "result": "1 (1%)"}, {"measurement": "Headaches, number of patients", "setting": "[6]; n = 40 per arm, 4 weeks", "result": "1 (1%)"}, {"measurement": "Nausea, % of patients", "setting": "[6]; n = 40 per arm, 4 weeks", "result": 3, "unit": "%"}, {"measurement": "Nausea, number of patients", "setting": "[6]; n = 40 per arm, 4 weeks", "result": 5}, {"measurement": "Restlessness, % of patients", "setting": "[6]; n = 40 per arm, 4 weeks", "result": 5, "unit": "%"}, {"measurement": "Restlessness, number of patients", "setting": "[6]; n = 40 per arm, 4 weeks", "result": 2}, {"measurement": "Somnolence, % of patients", "setting": "[6]; n = 40 per arm, 4 weeks", "result": 18, "unit": "%"}, {"measurement": "Somnolence, number of patients", "setting": "[6]; n = 40 per arm, 4 weeks", "result": 7}, {"measurement": "Total Events (most frequent and serious adverse events)", "setting": "[6]; n = 40 per arm, 4 weeks", "result": 23}, {"measurement": "Vomiting, % of patients", "setting": "[6]; n = 40 per arm, 4 weeks", "result": 3, "unit": "%"}, {"measurement": "Vomiting, number of patients", "setting": "[6]; n = 40 per arm, 4 weeks", "result": 1}, {"measurement": "patients who discontinued participation because of Adverse Event", "setting": "[7]", "result": 1}]}, {"smiles": "[Li]", "note": "[lithium]", "values": [{"measurement": "serum lithium level", "setting": "[8]", "result": "≥ 0.5", "unit": "mEq/L"}]}]}
